Data: patent US9975888B2, “Aryl linked imidazole and triazole derivatives and methods of use thereof for improving the pharmacokinetics of a drug” (MERCK SHARP & DOHME CORP., priority 2013, dated 2018)
Like-named read-outs stand apart in the source and are kept apart here.

How the values were obtained:
Type in all cases: biochemical
[1] = molecular target: T1, CYP1A2 (Homo sapiens, UniProt P05177); assay: Cocktail assay for CYPs, phenacetin O-deethylation (CYP1A2), human liver microsomes; conditions: 10 μM phenacetin, 0.1 mg/mL human liver microsomes, 10 min at 37° C.; read-out: CYP IC50 (nM) 1A2
T1 construct: 0.1 mg/mL protein human liver microsomes (BD Gentest); tissue BD Gentest; host or cells: human liver microsomes
T1 sequence (P05177 1-516): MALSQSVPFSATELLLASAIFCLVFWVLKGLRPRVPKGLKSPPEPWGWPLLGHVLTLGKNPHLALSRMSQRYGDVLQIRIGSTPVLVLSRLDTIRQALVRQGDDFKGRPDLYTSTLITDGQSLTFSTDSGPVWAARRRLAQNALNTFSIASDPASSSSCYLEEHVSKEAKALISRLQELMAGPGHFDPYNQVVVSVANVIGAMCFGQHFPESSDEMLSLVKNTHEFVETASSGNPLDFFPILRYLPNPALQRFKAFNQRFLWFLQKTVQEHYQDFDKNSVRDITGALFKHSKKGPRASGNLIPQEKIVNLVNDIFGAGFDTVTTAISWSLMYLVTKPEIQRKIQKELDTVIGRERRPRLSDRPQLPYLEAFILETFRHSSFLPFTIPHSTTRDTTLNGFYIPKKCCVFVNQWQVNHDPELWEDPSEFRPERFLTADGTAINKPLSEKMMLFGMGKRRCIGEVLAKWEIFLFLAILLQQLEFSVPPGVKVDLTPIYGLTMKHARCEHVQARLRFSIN
Procedure, shortened: (§1)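 Pooled human liver microsomes (0.1 mg/mL) with a probe cocktail of 10 μM phenacetin, 5 μM dextromethorphan and 2 μM midazolam plus NADPH, pH 7.4, 10 min at 37° C. Each metabolite was quantified by LC/MS/MS against a tolbutamide internal standard. IC50 came from % inhibition at 6 concentrations (e.g. 0.0032–10 μM) by non-linear regression.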

[2] = molecular target: T2, CYP2C9 (Homo sapiens, UniProt P11712); assay: Cocktail assay for CYPs, diclofenac 4′-hydroxylation (CYP2C9), human liver microsomes; conditions: 0.1 mg/mL human liver microsomes, 10 min at 37° C.
T2 construct: 0.1 mg/mL protein human liver microsomes (BD Gentest); tissue BD Gentest; host or cells: human liver microsomes
Procedure, shortened: (§2)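 Pooled human liver microsomes (0.1 mg/mL) with probe cocktail incl. 5 μM diclofenac (CYP2C9) and 30 μM mephenytoin (CYP2C19), 1 mM NADPH, pH 7.4 phosphate buffer, 10 min at 37° C. Metabolites quantified by LC/MS/MS against internal standard; % inhibition versus no-inhibitor control, IC50 by non-linear regression.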

[3] = molecular target: T3, CYP2C19 (Homo sapiens, UniProt P33261); assay: Cocktail assay for CYPs, mephenytoin 4′-hydroxylation (CYP2C19), human liver microsomes; conditions: 0.1 mg/mL human liver microsomes, 10 min at 37° C.
T3 construct: 0.1 mg/mL protein human liver microsomes (BD Gentest); tissue BD Gentest; host or cells: human liver microsomes
Procedure, shortened: as §2

[4] = molecular target: T4, CYP2D6 (Homo sapiens, UniProt P10635); assay: Cocktail assay for CYPs, dextromethorphan O-demethylation (CYP2D6), human liver microsomes; conditions: 5 μM dextromethorphan, 0.1 mg/mL human liver microsomes, 10 min at 37° C.; read-out: CYP IC50 (nM) 2D6
T4 construct: 0.1 mg/mL protein human liver microsomes (BD Gentest); tissue BD Gentest; host or cells: human liver microsomes
Procedure, shortened: as §1

[5] = molecular target: T5, CYP3A4 (Homo sapiens, UniProt P08684); assay: Cocktail assay for CYPs, midazolam 1′-hydroxylation (CYP3A4), human liver microsomes; set-up: 0.1 mg/mL protein human liver microsomes (BD Gentest); tissue BD Gentest; host or cells: human liver microsomes; conditions: 2 μM midazolam, 0.1 mg/mL human liver microsomes, 10 min at 37° C.; read-out: CYP IC50 (nM) 3A4 (MDZ)
Procedure, shortened: as §1
Target sequence in this assay (P08684 whole entry): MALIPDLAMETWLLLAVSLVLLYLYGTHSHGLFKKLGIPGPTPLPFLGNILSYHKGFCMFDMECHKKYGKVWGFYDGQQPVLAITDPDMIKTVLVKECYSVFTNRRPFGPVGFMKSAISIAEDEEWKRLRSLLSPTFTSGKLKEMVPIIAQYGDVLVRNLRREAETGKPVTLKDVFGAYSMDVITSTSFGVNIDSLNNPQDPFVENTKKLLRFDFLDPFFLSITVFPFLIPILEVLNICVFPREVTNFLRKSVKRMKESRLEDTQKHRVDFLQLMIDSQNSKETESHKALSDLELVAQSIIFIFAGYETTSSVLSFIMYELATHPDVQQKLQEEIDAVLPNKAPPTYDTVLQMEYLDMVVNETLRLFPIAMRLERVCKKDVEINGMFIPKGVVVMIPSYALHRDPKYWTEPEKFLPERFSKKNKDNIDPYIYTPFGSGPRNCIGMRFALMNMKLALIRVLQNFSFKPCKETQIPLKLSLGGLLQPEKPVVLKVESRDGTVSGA

[6] = molecular target: T5, CYP3A4; assay: IC50 vs CYP3A by inhibition of lopinavir metabolism in human liver microsomes; set-up: 0.01 mg/mL protein human liver microsomes (BD Gentest); tissue BD Gentest; host or cells: human liver microsomes; conditions: 1.5 μM lopinavir, 0.01 mg/mL human liver microsomes, 8 min at 37° C.; read-out: CYP IC50 (nM) 3A4 (LPV)
Procedure, shortened: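 Human liver microsomes (0.01 mg/mL) with 1.5 μM lopinavir, 1 mM NADPH, 3.3 mM MgCl2 in 100 mM potassium phosphate pH 7.4, 8 min at 37 °C, six compound concentrations. Summed M2/M3/M4 hydroxy metabolites quantified by LC/MS/MS against tolbutamide; % inhibition normalised between no-inhibitor and 5 μM ketoconazole controls, IC50 by non-linear regression.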
Target sequence in this assay (P08684 2-503): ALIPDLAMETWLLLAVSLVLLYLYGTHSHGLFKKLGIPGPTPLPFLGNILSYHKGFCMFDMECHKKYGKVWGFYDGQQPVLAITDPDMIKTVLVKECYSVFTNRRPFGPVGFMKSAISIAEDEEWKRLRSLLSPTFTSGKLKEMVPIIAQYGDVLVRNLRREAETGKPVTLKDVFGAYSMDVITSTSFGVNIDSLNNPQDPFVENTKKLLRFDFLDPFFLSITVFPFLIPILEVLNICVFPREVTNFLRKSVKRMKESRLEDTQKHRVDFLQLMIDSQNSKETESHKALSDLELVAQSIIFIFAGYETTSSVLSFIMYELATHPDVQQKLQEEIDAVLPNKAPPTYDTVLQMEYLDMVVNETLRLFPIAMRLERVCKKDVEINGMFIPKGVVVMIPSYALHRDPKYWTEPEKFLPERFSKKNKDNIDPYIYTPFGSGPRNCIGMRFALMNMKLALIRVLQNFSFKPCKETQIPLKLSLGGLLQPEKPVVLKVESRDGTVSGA

[7] = 5 μM diclofenac, read-out: CYP IC50 (nM) 2C9
[8] = 30 μM mephenytoin, read-out: CYP IC50 (nM) 2C19
[9] = CYP IC50 (nM) 2C9, 5 μM diclofenac
[10] = CYP IC50 (nM) 2C19, 30 μM mephenytoin

T4 sequence (P10635 whole entry): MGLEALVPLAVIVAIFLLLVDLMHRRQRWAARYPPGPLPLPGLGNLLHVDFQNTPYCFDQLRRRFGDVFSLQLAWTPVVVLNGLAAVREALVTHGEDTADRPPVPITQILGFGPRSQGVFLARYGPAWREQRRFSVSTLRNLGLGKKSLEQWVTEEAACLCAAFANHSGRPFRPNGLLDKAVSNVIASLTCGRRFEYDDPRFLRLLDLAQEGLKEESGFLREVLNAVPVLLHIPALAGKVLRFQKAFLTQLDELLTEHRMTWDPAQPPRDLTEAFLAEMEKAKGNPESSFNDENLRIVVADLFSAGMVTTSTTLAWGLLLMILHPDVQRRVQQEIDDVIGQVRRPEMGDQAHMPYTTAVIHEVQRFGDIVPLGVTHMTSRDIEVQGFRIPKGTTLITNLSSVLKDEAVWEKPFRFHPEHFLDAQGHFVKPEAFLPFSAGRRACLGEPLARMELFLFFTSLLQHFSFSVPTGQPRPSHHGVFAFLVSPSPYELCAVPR
T2 sequence (P11712 whole entry): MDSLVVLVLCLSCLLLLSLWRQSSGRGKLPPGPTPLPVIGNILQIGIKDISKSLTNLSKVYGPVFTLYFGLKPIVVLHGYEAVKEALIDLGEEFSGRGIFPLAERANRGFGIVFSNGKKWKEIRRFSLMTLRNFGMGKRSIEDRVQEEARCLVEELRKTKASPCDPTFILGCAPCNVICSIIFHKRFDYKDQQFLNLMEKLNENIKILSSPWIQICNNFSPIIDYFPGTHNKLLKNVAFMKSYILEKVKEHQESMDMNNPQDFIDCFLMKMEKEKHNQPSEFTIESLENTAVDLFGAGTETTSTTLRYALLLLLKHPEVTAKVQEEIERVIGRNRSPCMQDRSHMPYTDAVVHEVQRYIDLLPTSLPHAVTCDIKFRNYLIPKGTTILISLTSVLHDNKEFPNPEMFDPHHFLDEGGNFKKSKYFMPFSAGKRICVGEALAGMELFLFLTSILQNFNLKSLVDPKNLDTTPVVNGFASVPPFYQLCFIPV
T3 sequence (P33261 whole entry): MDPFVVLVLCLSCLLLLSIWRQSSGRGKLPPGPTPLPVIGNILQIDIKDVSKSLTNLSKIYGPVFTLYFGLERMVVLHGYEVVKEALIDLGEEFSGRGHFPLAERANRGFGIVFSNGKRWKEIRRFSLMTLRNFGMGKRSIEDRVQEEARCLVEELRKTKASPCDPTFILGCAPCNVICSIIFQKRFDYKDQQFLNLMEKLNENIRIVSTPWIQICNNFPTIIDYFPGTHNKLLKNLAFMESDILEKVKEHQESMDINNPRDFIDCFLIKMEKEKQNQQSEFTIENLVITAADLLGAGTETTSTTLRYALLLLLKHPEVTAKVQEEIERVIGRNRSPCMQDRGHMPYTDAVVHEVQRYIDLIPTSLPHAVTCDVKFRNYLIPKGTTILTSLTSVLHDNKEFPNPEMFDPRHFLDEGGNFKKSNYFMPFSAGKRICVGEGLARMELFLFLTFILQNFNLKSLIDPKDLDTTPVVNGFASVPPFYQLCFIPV

IC50 [1] [nM] | IC50 [2, 7] [nM] | IC50 [3, 8] [nM] | IC50 [4] [nM] | IC50 [5] [nM] | IC50 [6] [nM] | Structure (SMILES) | IC50 [2, 9] [nM] | IC50 [3, 10] [nM]
1080 | 61.6 | 219 | 139 | 6.63 | 0.84 | O=C(NCc1ccc(S(=O)(=O)N2CCCC2c2cccc(-c3cncn3CCc3ccc(F)cc3)c2)s1)c1ccccc1 (single isomer, unassigned) [Compound 55a, (R or S)-N-((5-((2-(3-(1-(4-fluorophenethyl)-1H-imidazol-5-yl)phenyl)pyrrolidin-1-yl)sulfonyl)thiophen-2-yl)methyl) benzamide] | – | –
158 | 63.8 | 56 | 163 | 5.1 | 0.92 | O=C(NCc1ccc(S(=O)(=O)N2CCCC2c2cccc(-c3cncn3CCc3ccc(F)cc3)c2)s1)c1ccccc1 (single isomer, unassigned) [Compound 55b, (R or S)-N-((5-((2-(3-(1-(4-fluorophenethyl)-1H-imidazol-5-yl)phenyl)pyrrolidin-1-yl)sulfonyl)thiophen-2-yl)methyl) benzamide] | – | –
367 | 365 | 331 | 2200 | 10.4 | 3.7 | O=S(=O)(c1ccc(N2CCC(O)CC2)nc1)N1CCCC1c1cccc(-c2cncn2CCc2ccc(F)cc2)c1 (single isomer, unassigned) [Compound 57a, (R or S)-1-(5-((2-(3-(1-(4-fluorophenethyl)-1H-imidazol-5-yl)phenyl)pyrrolidin-1-yl)sulfonyl)pyridin-2-yl) piperidin-4-ol] | – | –
190 | 209 | 393 | 2230 | 4.52 | 1.4 | O=S(=O)(c1ccc(N2CCC(O)CC2)nc1)N1CCCC1c1cccc(-c2cncn2CCc2ccc(F)cc2)c1 (single isomer, unassigned) [Compound 57b, (R or S)-1-(5-((2-(3-(1-(4-fluorophenethyl)-1H-imidazol-5-yl)phenyl)pyrrolidin-1-yl)sulfonyl)pyridin-2-yl) piperidin-4-ol] | – | –

The next lines start with the molecule.

Structure (SMILES) | IC50 [1] [nM] | IC50 [2, 7] [nM] | IC50 [3, 8] [nM] | IC50 [4] [nM] | IC50 [5] [nM] | IC50 [6] [nM] | IC50 [2, 9] [nM] | IC50 [3, 10] [nM]
CC(=O)Nc1ncc(S(=O)(=O)N2CCc3cc(-c4cncn4CCc4ccc(F)cc4)ccc3C2)s1 [Compound 1, N-(5-((6-(1-(4-fluorophenethyl)-1H-imidazol-5-yl)-3,4-dihydroisoquinolin-2(1H)-yl)sulfonyl)thiazol-2-yl)acetamide] | 1450 | 10 | 44 | 765 | 11 | 2.3 | – | –
C[C@H](c1ccc(F)cc1)n1cncc1-c1ccc2c(c1)CN(S(=O)(=O)c1cnc(N)s1)CC2 [Compound 2, (R)-5-((7-(1-(1-(4-fluorophenyl)ethyl)-1H-imidazol-5-yl)-3,4-dihydroisoquinolin-2(1H)-yl)sulfonyl)thiazol-2-amine] | 2610 | 505 | 121 | 288 | 39 | 17 | – | –
CC(NS(=O)(=O)c1cnc(N2CCN(C)CC2)s1)c1ccc(-c2cncn2CCc2ccc(F)cc2)cc1 (stereo not drawn) [Compound 3, N-(1-(4-(1-(4-fluorophenethyl)-1H-imidazol-5-yl)phenyl)ethyl)-2-(4-methylpiperazin-1-yl)thiazole-5-sulfonamide] | > 10000 | 4300 | > 10000 | 2530 | 22 | 14 | – | –
CC(c1ccccc1-c1cncn1CCc1ccc(F)cc1)N(C)S(=O)(=O)c1cnc(N2CCN(C)CC2)s1 (stereo not drawn) [Compound 4, N-(1-(2-(1-(4-fluorophenethyl)-1H-imidazol-5-yl)phenyl)ethyl)-N-methyl-2-(4-methylpiperazin-1-yl)thiazole-5-sulfonamide] | > 10000 | 2200 | 6700 | 5110 | 12 | 9 | – | –
CN1CCN(c2ncc(S(=O)(=O)NC(c3ccccc3)c3ccccc3-c3cncn3CCc3ccc(F)cc3)s2)CC1 (stereo not drawn) [Compound 5, N-((2-(1-(4-fluorophenethyl)-1H-imidazol-5-yl)phenyl) (phenyl)methyl)-2-(4-methylpiperazin-1-yl)thiazole-5-sulfonamide] | > 10000 | > 10000 | > 10000 | > 10000 | 65 | 80 | – | –
C[C@@H](NS(=O)(=O)c1cnc(N2CCN3C[C@H](O)C[C@H]3C2)s1)c1ccccc1-c1cncn1CCc1ccc(F)cc1 [Compound 6a, N-((R)-1-(2-(1-(4-fluorophenethyl)-1H-imidazol-5-yl)phenyl)ethyl)-2-((7R,8aS)-7-hydroxy-hexahydro-pyrrolo[1,2-a]pyrazin-2(1H)-yl)thiazole-5-sulfonamide] | > 10000 | – | – | 2540 | 7.5 | 8.6 | 4550 | 8700
C[C@H](NS(=O)(=O)c1cnc(N2CCN3C[C@H](O)C[C@H]3C2)s1)c1ccccc1-c1cncn1CCc1ccc(F)cc1 [Compound 6b, N-((S)-1-(2-(1-(4-fluorophenethyl)-1H-imidazol-5-yl)phenyl)ethyl)-2-((7R,8aS)-7-hydroxy-hexahydro-pyrrolo[1,2-a]pyrazin-2(1H)-yl)thiazole-5-sulfonamide] | > 10000 | – | – | 3500 | 30 | 40.3 | 5450 | > 10000
CC(=O)Nc1ncc(S(=O)(=O)NC(C)(C)c2ccccc2-c2cncn2CCc2ccc(F)cc2)s1 [Compound 7, N-(5-(N-(2-(2-(1-(4-fluorophenethyl)-1H-imidazol-5-yl)phenyl)propan-2-yl)sulfamoyl)thia-zol-2-yl)acetamide] | 6070 | 5990 | 3180 | 2880 | 22.9 | 10.6 | – | –
CC(=O)Nc1ncc(S(=O)(=O)N2CCCC2c2ccc(-c3cncn3CCc3ccc(F)cc3)cc2)s1 (stereo not drawn) [Compound 8, N-(5-((2-(4-(1-(4-fluorophenethyl)-1H-imidazol-5-yl)phenyl)pyrrolidin-1-yl)sulfonyl)thiazol-2-yl)acetamide] | 8560 | 565 | 281 | 1200 | 4.4 | 1.9 | – | –
CN1CCN(c2ncc(S(=O)(=O)N3CCCC3c3ccc(-c4cncn4CCc4ccc(F)cc4)cc3)s2)CC1 (stereo not drawn) [Compound 9, 5-((2-(4-(1-(4-fluorophenethyl)-1H-imidazol-5-yl)phenyl)pyrrolidin-1-yl)sulfonyl)-2-(4-methylpiperazin-1-yl)thiazole] | > 10000 | 684 | 148 | 2100 | 9 | 2.4 | – | –
CC(=O)Nc1ncc(S(=O)(=O)NC2(c3ccc(-c4cncn4[C@H](C)c4ccc(F)cc4)cc3)CC2)s1 [Compound 10, (R)—N-(5-(N-(1-(4-(1-(1-(4-fluorophenyl)ethyl)-1H-imidazol-5-yl)phenyl)cyclopropyl)sulfamoyl)thiazol-2-yl)acetamide] | 8480 | > 10000 | > 10000 | 9200 | 192 | > 100 | – | –
